Literature values, collected in patent US7514574B2, “Biodegradable penetration enhancers with multiple hydrophilic moieties” (priority 2003, dated 2009).

What was measured:
mice = settings: mouse, in vivo, ip
human cadaver skin = settings: tritiated water, Hirvonen et al (1993)

Row | Structure (SMILES) | LD50 (mice) [mg/kg] | increase of skin permeability to T2O (enhanced flux over passive flux) (human cadaver skin) [times]
1 | CCCCCCCCCCCCN1CCCCCC1=O [Azone, 1-dodecylazacycloheptane-2-one] | 232 | 8
2 | CCCCCCCCCCCCOC(=O)CN(C)C [dodedyl, (N,N-dimethyl amino) acetate, dodecyl (N N-dimethyl amino) acetate] | – | 13
